The values below come from US8435553B2, “Elastin stabilization of connective tissue” (Clemson University Research Foundation (CURF), priority 2005, dated 2013).

Series [1] has as its system Rat skin fibroblasts. As to the method: (§1) Fresh porcine aorta was treated with Glut, Glut/TA, or Glut/PGG, as described above. After thorough rinsing (3x, 1 hr. each, 100 mL ddH2O), samples were orbitally shaken at 120 rpm 37° C. for 14 days in a PBS/azide buffer, pH7.4, for extraction of soluble, cytotoxic compounds (50 mL per 6 tissues samples, each 4 mm×4 mm).
(§2) Rat skin fibroblasts were seeded onto 24-well plates (50,000 cells/well) in 1 mL DMEM supplemented with 10% FBS and 1% penicillin-streptomycin. Cells were maintained in a humidified incubator at 37° C. with 10% CO2. After 24 hours, the media was removed and replaced with one of the PBS/azide solutions diluted 10-fold in fresh media. As control, a sample was held in buffer alone (negative control) and also in a 70% ethanol solution (positive control). Effectively, 100 μL of the ‘test solution’ was added to 900 μL of media for each well (except in the case of ethanol, in which no media was added). The cells were incubated with these solutions for 2 hours and then rinsed with 1 mL PBS. Viability of the cells was then assessed using a qualitative LIVE/DEAD® staining fluorescent stain. In addition, a quantitative measurement, MTS, was used to measure the activity of cell enzymes. Specifically, the reagent was diluted 5-fold in media, then applied to the cells for 90 minutes. A portion of the resulting solutions ([…]) was transferred to a 96-well plate and read at an absorbance of 490 nm. Samples were blanked to a well containing media and MTS reagent with no cells.
Micrographs of cells introduced to LIVE/DEAD® were taken 45 minutes after exposure. Results are shown in FIGS. 6A-6E, in which living cells appear as light spots on the dark background, and dead cells appear as darker gray spots.

Series [2] relates to Rat skin fibroblasts. As to the method: as §1, §2
The source holds these as a separate data set.

For series [3], the system named is porcine aorta. Briefly: Recoil of aortic rings by opening angle measurement. The following applies: aortic rings cut radially, relaxed 15 minutes; n = 5. As to the method: Fresh porcine aorta was cut across the diameter into continuous rings approximately 1 cm in height as illustrated in FIG. 5A and treated with glutaraldehyde (Glut treatment). For this treatment, aortic ring samples were first fixed with 0.6% glutaraldehyde in 50 mM Hepes buffered saline, pH 7.4, overnight at room temperatures, followed by 0.2% glutaraldehyde in the same buffer for 7 days at room temperatures.
A portion of the Glut-treated rings were then treated with 0.3% pentagalloylglucose (PGG). PGG was first prepared from TA as outlined by Hagerman, et al. (Hagerman , Zhao Y., and Johanson J., “Methods for determination of condensed and hydrolyzable tannins,” Shahadi, F., Ed., Antinutrients and Phytochemicals in Foods, Wash., D.C., American Chemical Society, p. 209-222 (1997)). Specifically, TA was methanolyzed using a solution of methanol and acetate buffer. After methanolysis, the methanol was removed by rotary evaporation and replaced with ddH2O. A series of separate extractions involving diethyl ether and ethyl acetate, along with rinses of dilute methanol and ddH2O was performed to purify the PGG. The resulting precipitate was centrifuged and lyophilized to form a solid. […]
Samples were then tested for ability to recoil using opening angle measurements. […] Using these lines, the opening angles of the aortic rings were calculated. […]

The test system of series [4] is porcine aorta. Briefly: Tensile stress/strain test, elastic modulus of aorta. The note with it: slope of stress-strain curve between 0 and 5% strain; n = 4. As to the method: To evaluate mechanical properties, aorta was cut to form dumbbell shapes approximately 40 mm in length, approximately 10 mm wide at each end, and approximately 5 mm wide at the center, with the long axis of the dumbbell shape being parallel to the circumferential direction of the aorta. Tensile properties of the samples were tested using standard stress/strain analysis on a Synergie 100 testing apparatus (MTS Systems Corporation, Eden Prairie, Minn.) operated at a constant uniaxial velocity of 0.2 mm/sec using a 10-Newton load cell to determine elastic modulus of the samples. Elastic modulus was calculated as the slope of the stress-strain curve between 0 and 5% strain.

Series [5] is described as follows: Long-term binding of tannins to aortic tissue (extraction from explanted aorta). Format: in vivo, Sprague-Dawley rats. As to the method:
(§3) Adult male Sprague-Dawley rats were placed under general anesthesia (2% to 3% isoflurane), allowing for a midline incision along the abdomen in order to expose the infrarenal abdominal aorta. Once exposed, the abdominal aorta was treated with 0.03% PGG solution in saline for 15 minutes using a strip (1.5 cm×0.5 cm) of presoaked 8-ply sterile cotton gauze. The area was then briefly rinsed with saline, allowing induction of chemical injury (0.5 M CaCl2, delivered with gauze for 15 minutes). As controls, rat aortas were treated with physiological saline for 15 minutes, rinsed, and then subjected to calcium chloride. After treating with CaCl2, the gauze was removed and the abdominal cavity was closed with subcutaneous suture, followed by surgical staples. The rats were anesthetized after 28 days, at which point the abdominal aorta was again exposed. Digital photographs (before PGG application at day 0, as well as after 28 days) were used to measure percent increases in diameter after the 28 day period for each rat. Aortic tissue was collected for analysis. Vessels were also analyzed to determine the long-term binding of the tannins with the tissue. Tannins were extracted from explanted aorta immediately after treatment (labeled PGG in situ on FIG. 11) and measured levels were compared to those obtained from aorta explanted 28 days following PGG treatment (labeled PGG in vivo on FIG. 11).

A further series deals with rat abdominal aorta. Briefly: CaCl2 chemical injury aneurysm model on rat abdominal aorta. Format: in vivo, Sprague-Dawley rats.
Excerpt: In vivo use of the disclosed agents was examined. The aneurysm model used was based on the perivascular application of a high concentration calcium chloride (CaCl2) solution, a method originally used to induce aneurysms in rabbit carotid arteries (see, Gertz SD, Kurgan A, Eisenberg D. J Clin Invest 1988;81(3):649-656.) and has more recently been used on abdominal aorta of rodents. (See, e.g., Freestone T., et al., Arterioscler Thromb Vasc Biol 1995;15(8):1145-1151. Freestone T., et al., Arterioscler Thromb Vasc Biol 1997;17(1):10-17. Tambiah J., et al. Br J Surg 2001;88(7):935-940.) This model results in a localized mild insult to the arterial tissue. In most studies, a significant increase in aortic diameter (indicative of aneurysm formation) was observed after 3 to 6 weeks post-injury. For this example, the CaCl2-based chemical injury was performed on rat aorta.
as §3, with “analysis.” for “analysis. Vessels were also analyzed to determine the long-term binding of the tannins with the tissue. Tannins were extracted from explanted aorta immediately after treatment (labeled PGG in situ on FIG. 11) and measured levels were compared to those obtained from aorta explanted 28 days following PGG treatment (labeled PGG in vivo on FIG. 11).”
Following superficial examination of the aortic segments, the segments were analyzed via desmosine analysis for elastin content. […]

Another series deals with pure aortic elastin. In words: Kinetics of binding of tannic acid to pure aortic elastin. More on the design: species or system porcine. As to the method:
Ascending porcine aorta was collected fresh at a slaughterhouse and transported to the laboratory on ice. After cleaning fat and adherent tissues, aorta was cut into 2×4 mm strips and thoroughly rinsed in cold saline. Aortic elastin was purified by a sequence of extractions. Specifically, aortic strips were suspended in 100 mM sodium hydroxide (60 strips in 100 mL) and incubated for 14 hours at 37° C. with collagenase (0.5 units/mg wet tissue) in 50 mM Tris buffer, 10 mM calcium chloride, pH 8.0. The collagenase preparation was pre-adsorbed with elastin fibers to remove residual elastolytic activities. The final digestion step completely removed residual collagen, leaving pure aortic elastin.
The pure aortic elastin strips were placed in 2 mL microfuge tubes and suspended in 1.5 mL of an 8 mg % TA solution prepared in a 50 mM disodium hydrogen phosphate, 0.9% sodium chloride buffer, pH 5.5. A second group consisted of pure aortic elastin suspended in a solution containing 8 mg % TA and 16 mg % Glut in the same buffer. As controls, TA solution and the mixture of TA and Glut were incubated without elastin samples. Samples were incubated at room temperature and at defined time intervals (0, 20, 40, 60, 120, 360 minutes and 24 hours), samples were retrieved and analyzed for TA content in solution. Specifically, samples were mixed with a tungstate/phosphomolybdate reagent followed by addition of a saturated sodium carbonate solution and ddH2O. After 10 minutes at room temperature, OD at 760 nm was measured in a microplate spectrophotometer. Standard curves were constructed with TA in the range of 0-8 mg % and with TA (0-8 mg %) in mixtures with Glut (16 mg % ). Glut interference with the TA color reaction was minimal (no statistical differences found for all data points). Finally, the elastin strops were rinsed in ddH2O and lyophilized. The amount of TA bound to pure aortic elastin was calculated from the differences between initial TA concentration in solution and concentration of TA in solution after incubation with elastin strops and were expresses as micrograms of TA bound by 1 mg dry elastin. All samples were assayed in triplicate.

The test system of the next series is elastase. Briefly: Elastase digestion of treated porcine aorta (mass loss, elastin histology). Format: biochemical. As to the method: Fresh porcine aorta was cut into approximately 4 mm×4 mm squares and treated with 0.3% tannic acid (TA) (1.76 mM) in 50 mM HEPES […] buffered saline at pH 5.5 for 4 days at room temperature. A control sample was treated in mM Hepes buffered saline at pH5.5. Samples were then rinsed three times (1 hour each) in 100 mL ddH2O at room temperature and lyophilized to record dry weight. Samples (about 15-25 mg dry weight), both control and TA treated, were incubated with 1.0 mL pure elastase (20 units/ml, in 100 mM Tris, 1 mM CaCl2, 0.02% NaN3, pH 7.8 buffer) at 37° C. for 48 hours with orbital shaking at 650 rpm. Samples were then centrifuged (10000 rpm, 10 min. 4° C.) and supernatants retained to assess enzyme activity. Tissue samples were again rinsed three times (1 hour each) in 100 mL ddH2O at room temperature and lyophilized to record dry weight after elastase, and the percent of digested tissue was calculated. Elastin degradation was assessed by measuring mass loss (dry weight before and after elastase contact) and by preparation of histological slides stained with an elastin-specific stain (Voerhoff van Gieson stain).

Where “and” joins values, the source holds several entries; their conditions need not be identical. Equal entries are not always repeated. Where two headings read alike, the source gives them in different places.

As for `CCO` [EtOH, ethanol], in the series with Rat skin fibroblasts [1], the “cell viability after exposure to extracts” value is “essentially no viable cells”. For the same compound, the “Viability (live/dead assay)” value with Rat skin fibroblasts [1] (14 day tissue extract diluted 10-fold in media, 2 hours exposure) was determined as 0%. Also, in the series on Rat skin fibroblasts [2] (14 day tissue extract diluted 10-fold, 2 hours exposure, absorbance at 490 nm, n = 3), the “Viability (MTS assay)” value was 0.03.
Take `O=CCCCC=O` [Glut, glutaraldehyde]: in the series with porcine aorta [3], the Mean opening angle was 35.9 degrees. The “cell viability after exposure to extracts” value in the series with Rat skin fibroblasts [1] is “remained viable”. Moreover, in the series on Rat skin fibroblasts [1] (rat, 2 h), the “Viability (live/dead assay)” value came out at 100%. Also, the “Mean Elastic Modulus” value with porcine aorta [4] was found to be 1.28 kPa. Besides, the “Viability (MTS assay)” value in the series on Rat skin fibroblasts [2] (rat, 2 h) was determined as 1.04.
For `O=C(OC[C@H]1O[C@@H](OC(=O)c2cc(O)c(O)c(O)c2)[C@H](OC(=O)c2cc(O)c(O)c(O)c2)[C@@H](OC(=O)c2cc(O)c(O)c(O)c2)[C@@H]1OC(=O)c1cc(O)c(O)c(O)c1)c1cc(O)c(O)c(O)c1` [PGG, pentagalloylglucose], the “level of tannins extracted from tissue” value is “about 1.3 μg PGG/mg dry tissue” in series [5] (explanted 28 days following PGG treatment (PGG in vivo)) and “about 1.8 μg PGG/mg dry tissue” in series [5] (explanted immediately after treatment (PGG in situ)). In addition, in the series with rat abdominal aorta (0.03% PGG perivascular 15 minutes before CaCl2, 28 days), the “percentage change in diameter of aortic segments” value is listed as “less than 10%”. Besides, the “increase in diameter of aortic segments” value with rat abdominal aorta (0.03% PGG perivascular 15 minutes before CaCl2, 28 days, n=12 per group) is recorded as “about 100 μm”. The “desmosine content (elastin content)” value in the series on rat abdominal aorta (aortic segments 28 days post-injury) is “about 1350 pmol desmosine/mg protein”. In addition, in the series on Rat skin fibroblasts [2], the cytotoxicity comparison result is “less cytotoxic than TA”.
As for `O=C(OC[C@H]1O[C@@H](OC(=O)c2cc(O)c(O)c(OC(=O)c3cc(O)c(O)c(O)c3)c2)[C@H](OC(=O)c2cc(O)c(O)c(OC(=O)c3cc(O)c(O)c(O)c3)c2)[C@@H](OC(=O)c2cc(O)c(O)c(OC(=O)c3cc(O)c(O)c(O)c3)c2)[C@@H]1OC(=O)c1cc(O)c(O)c(OC(=O)c2cc(O)c(O)c(O)c2)c1)c1cc(O)c(O)c(OC(=O)c2cc(O)c(O)c(O)c2)c1` [TA, tannic acid], the “TA remaining in solution, of initial TA” value with pure aortic elastin (after 6 hours incubation with elastin) is listed as 10%; in the series with pure aortic elastin (at 24 hours incubation with elastin), “less than 3.5%”. Moreover, the “TA bound at leveling off” value with pure aortic elastin (rapid binding within the first 6 hours, then plateau) is reported as “about 3 mg of TA/mg dry elastin”. Moreover, the “decrease of amount of TA in solution” value in the series with pure aortic elastin (within 1 hour of incubation with elastin, 8 mg % TA, pH 5.5) is “about 50%”. In the series on elastase (0.3% TA pre-treated aorta after elastase), the “elastin fibers in histology (Voerhoff van Gieson stain) after elastase” value was “fully preserved”. Further, the “mass lost after elastase (percent of digested tissue)” value with elastase (0.3% TA pre-treatment 4 days pH 5.5, elastase 20 units/ml, 37° C., 48 hours, n=6) is 4-5% and 4.33%.
